Assay results: PubChem BioAssay AID248 (DTP/NCI, 2004)
“And” between values parts separate entries of the source, which are not always exact repeats. Equal entries are not always repeated. Inconclusive results and toxic doses are left out.

Test system: L1210 leukemia ip in BDF1 mice, survival T/C
Assay: NCI In Vivo Anticancer Drug Screen. Data for tumor model L1210 Leukemia (intraperitoneal) in B6D2F1 (BDF1) mice
Conditions: endpoint: mean survival time, higher = longer survival
How it was run: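 Tumor was transplanted into mice, which were then dosed with test compound or vehicle alone. Survival was recorded for each group, and the treated figure was expressed relative to the control figure.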

[1] = dose: 100.0 mg/kg/injection, schedule: Q04DX003 (ip), vehicle: Klucel (hydroxypropylcellulose) (HPC)
[2] = dose: 200.0 mg/kg/injection, schedule: Q04DX003 (ip), vehicle: Klucel (hydroxypropylcellulose) (HPC)
[3] = dose: 400.0 mg/kg/injection, schedule: Q04DX003 (ip), vehicle: Klucel (hydroxypropylcellulose) (HPC)
[4] = dose: 100.0 mg/kg/injection, schedule: Q01DX001 (ip), vehicle: Klucel (hydroxypropylcellulose) (HPC)
[5] = dose: 200.0 mg/kg/injection, schedule: Q01DX001 (ip), vehicle: Klucel (hydroxypropylcellulose) (HPC)
[6] = dose: 400.0 mg/kg/injection, schedule: Q01DX001 (ip), vehicle: Klucel (hydroxypropylcellulose) (HPC)
[7] = dose: 12.5 mg/kg/injection, schedule: Q01DX009 (ip), vehicle: saline with Tween-80
[8] = dose: 25.0 mg/kg/injection, schedule: Q01DX009 (ip), vehicle: saline with Tween-80
[9] = dose: 50.0 mg/kg/injection, schedule: Q01DX009 (ip), vehicle: saline with Tween-80
[10] = dose: 100.0 mg/kg/injection, schedule: Q04DX003 (ip), vehicle: saline with Tween-80
[11] = dose: 200.0 mg/kg/injection, schedule: Q04DX003 (ip), vehicle: saline with Tween-80
[12] = dose: 400.0 mg/kg/injection, schedule: Q04DX003 (ip), vehicle: saline with Tween-80
[13] = dose: 100.0 mg/kg/injection, schedule: Q01DX001 (ip), vehicle: other
[14] = dose: 200.0 mg/kg/injection, schedule: Q01DX001 (ip), vehicle: other
[15] = dose: 100.0 mg/kg/injection, schedule: Q01DX009 (ip), vehicle: Klucel (hydroxypropylcellulose) (HPC)
[16] = dose: 200.0 mg/kg/injection, schedule: Q01DX009 (ip), vehicle: Klucel (hydroxypropylcellulose) (HPC)
[17] = dose: 400.0 mg/kg/injection, schedule: Q01DX009 (ip), vehicle: Klucel (hydroxypropylcellulose) (HPC)

SMILES: CCOCC(C#N)C#N
- T/C (dose: 6.25 mg/kg/injection, schedule: Q01DX009 (ip), vehicle: saline): 94 % of control
- T/C (dose: 6.25 mg/kg/injection, schedule: Q04DX003 (ip), vehicle: saline): 96 % of control
- T/C (dose: 12.5 mg/kg/injection, schedule: Q01DX009 (ip), vehicle: saline): 92 % of control
- T/C (dose: 12.5 mg/kg/injection, schedule: Q04DX003 (ip), vehicle: saline): 106 % of control
- T/C (dose: 25.0 mg/kg/injection, schedule: Q04DX003 (ip), vehicle: saline): 99 % of control

SMILES: O=C(NC(=S)Nc1ccccn1)c1ccccc1
- T/C (dose: 25.0 mg/kg/injection, schedule: Q04DX002 (ip), vehicle: other): 102 % of control
- T/C (dose: 50.0 mg/kg/injection, schedule: Q04DX002 (ip), vehicle: other): 100 % of control
- T/C (dose: 100.0 mg/kg/injection, schedule: Q04DX002 (ip), vehicle: other): 105 % of control
- T/C (dose: 200.0 mg/kg/injection, schedule: Q04DX002 (ip), vehicle: other): 86 % of control

SMILES: COc1cc(C=Nc2cc(Cl)c(O)c(Cl)c2)ccc1N(CCCl)CCCl
- T/C (dose: 1.4 mg/kg/injection, schedule: Q01DX009 (ip), vehicle: carboxymethylcellulose (CMC)): 113 % of control
- T/C (dose: 2.1 mg/kg/injection, schedule: Q01DX009 (ip), vehicle: carboxymethylcellulose (CMC)): 105 % of control
- T/C (dose: 5.3 mg/kg/injection, schedule: Q01DX009 (ip), vehicle: carboxymethylcellulose (CMC)): 112 % of control
- T/C (dose: 10.0 mg/kg/injection, schedule: Q01DX009 (ip), vehicle: carboxymethylcellulose (CMC)): 171 % of control
- T/C (dose: 11.1 mg/kg/injection, schedule: Q01DX001 (ip), vehicle: carboxymethylcellulose (CMC)): 122 % of control
- T/C (dose: 12.0 mg/kg/injection, schedule: Q01DX009 (ip), vehicle: carboxymethylcellulose (CMC)): 110 % of control
- T/C (dose: 16.6 mg/kg/injection, schedule: Q01DX001 (ip), vehicle: carboxymethylcellulose (CMC)): 116 % of control and 123 % of control
- T/C (dose: 18.0 mg/kg/injection, schedule: Q01DX009 (ip), vehicle: carboxymethylcellulose (CMC)): 88 % of control
- T/C (dose: 25.0 mg/kg/injection, schedule: Q01DX001 (ip), vehicle: carboxymethylcellulose (CMC)): 122 % of control

SMILES: C/C(=N\OC(=O)c1ccc([N+](=O)[O-])cc1)C(C)(C)C
- T/C (dose: 100.0 mg/kg/injection, schedule: Q04DX002 (ip), vehicle: Klucel (hydroxypropylcellulose) (HPC)): 88 % of control
- T/C (dose: 200.0 mg/kg/injection, schedule: Q04DX002 (ip), vehicle: Klucel (hydroxypropylcellulose) (HPC)): 100 % of control
- T/C (dose: 400.0 mg/kg/injection, schedule: Q04DX002 (ip), vehicle: Klucel (hydroxypropylcellulose) (HPC)): 96 % of control

SMILES: CN=NCc1ccccc1
- T/C (dose: 90.0 mg/kg/injection, schedule: Q04DX002 (ip), vehicle: saline with Tween-80): 106 % of control
- T/C (dose: 100.0 mg/kg/injection, schedule: Q04DX002 (ip), vehicle: saline with Tween-80): 108 % of control and 122 % of control
- T/C (dose: 133.0 mg/kg/injection, schedule: Q04DX002 (ip), vehicle: saline with Tween-80): 120 % of control
- T/C (dose: 200.0 mg/kg/injection, schedule: Q04DX002 (ip), vehicle: saline with Tween-80): 106 % of control and 111 % of control
- T/C (dose: 300.0 mg/kg/injection, schedule: Q04DX002 (ip), vehicle: saline with Tween-80): 117 % of control

SMILES: ClC12CC3CC(CC(C3)C1)C2
- T/C (dose: 100.0 mg/kg/injection, schedule: Q01DX009 (ip), vehicle: acetone): 92 % of control
- T/C (dose: 100.0 mg/kg/injection, schedule: Q04DX003 (ip), vehicle: acetone): 91 % of control
- T/C (dose: 200.0 mg/kg/injection, schedule: Q01DX009 (ip), vehicle: acetone): 95 % of control and 91 % of control
- T/C (dose: 200.0 mg/kg/injection, schedule: Q04DX003 (ip), vehicle: acetone): 98 % of control
- T/C (dose: 400.0 mg/kg/injection, schedule: Q01DX009 (ip), vehicle: acetone): 93 % of control
- T/C (dose: 400.0 mg/kg/injection, schedule: Q04DX003 (ip), vehicle: acetone): 88 % of control

SMILES: O=C(CCc1ccncc1)Nc1ccccc1
- T/C [1]: 100 % of control
- T/C [2]: 96 % of control
- T/C [3]: 100 % of control

SMILES: Cc1nc(N)[nH]c(=O)c1N
- T/C (dose: 75.0 mg/kg/injection, schedule: Q01DX001 (ip), vehicle: saline with Tween-80): 106 % of control
- T/C [1]: 100 % of control
- T/C (dose: 150.0 mg/kg/injection, schedule: Q01DX001 (ip), vehicle: saline with Tween-80): 101 % of control
- T/C [2]: 96 % of control
- T/C (dose: 300.0 mg/kg/injection, schedule: Q01DX001 (ip), vehicle: saline with Tween-80): 103 % of control
- T/C [3]: 92 % of control

SMILES: CCOC(=O)C1(C(=O)OCC)C=C(CC)C(=O)OC1
- T/C (dose: 50.0 mg/kg/injection, schedule: Q01DX001 (ip), vehicle: carboxymethylcellulose (CMC)): 111 % of control
- T/C (dose: 100.0 mg/kg/injection, schedule: Q01DX001 (ip), vehicle: carboxymethylcellulose (CMC)): 100 % of control
- T/C (dose: 200.0 mg/kg/injection, schedule: Q01DX001 (ip), vehicle: carboxymethylcellulose (CMC)): 113 % of control
- T/C (dose: 400.0 mg/kg/injection, schedule: Q01DX001 (ip), vehicle: carboxymethylcellulose (CMC)): 105 % of control

SMILES: CN(C)C(=O)Sc1ccc(C(C)(C)C)cc1
- T/C [4]: 95 % of control
- T/C [5]: 90 % of control
- T/C [6]: 112 % of control

SMILES: CC(=O)C(C(C)=O)C(c1ccc2c(c1)OCO2)C(C(C)=O)C(C)=O
- T/C [7]: 93 % of control
- T/C [8]: 92 % of control
- T/C [9]: 93 % of control and 92 % of control
- T/C [10]: 86 % of control

SMILES: O=[N+]([O-])c1ccc2c(c1)c(-c1cccc(-c3ccccc3)c1)nc1ccccc12
- T/C [10]: 95 % of control
- T/C [11]: 88 % of control

SMILES: C1=C(c2ccccc2)c2ccccc2C1(c1ccccc1)c1ccccc1
- T/C [10]: 97 % of control
- T/C [11]: 94 % of control
- T/C [12]: 94 % of control

SMILES: CCOC(=O)CN=NNc1ccc(C(=O)OCC)cc1
- T/C (dose: 25.0 mg/kg/injection, schedule: Q01DX009 (ip), vehicle: other): 95 % of control
- T/C (dose: 50.0 mg/kg/injection, schedule: Q01DX009 (ip), vehicle: other): 96 % of control
- T/C (dose: 50.0 mg/kg/injection, schedule: Q04DX003 (ip), vehicle: other): 105 % of control
- T/C [13]: 98 % of control
- T/C (dose: 100.0 mg/kg/injection, schedule: Q04DX003 (ip), vehicle: other): 104 % of control
- T/C [14]: 95 % of control

SMILES: COc1cccc(N=Cc2ccc(OC(=O)c3ccccc3)c(OC)c2)c1
- T/C [15]: 91 % of control
- T/C [16]: 94 % of control
- T/C [17]: 92 % of control

SMILES: CCOc1ccc(C2CCCCCC2OS(C)(=O)=O)cc1 (stereo not drawn)
- T/C [4]: 105 % of control
- T/C [15]: 95 % of control
- T/C [1]: 97 % of control
- T/C [5]: 96 % of control
- T/C [16]: 98 % of control
- T/C [2]: 103 % of control
- T/C [6]: 100 % of control
- T/C [17]: 93 % of control
- T/C [3]: 101 % of control

SMILES: c1ccc(Nc2nnc(Nc3ccccn3)c3ccccc23)nc1
- T/C [10]: 95 % of control
- T/C [11]: 93 % of control
- T/C [12]: 96 % of control

SMILES: N#Cc1nc2nc(C(F)(F)F)[nH]c2nc1C#N
- T/C [7]: 101 % of control
- T/C (dose: 12.5 mg/kg/injection, schedule: Q04DX003 (ip), vehicle: saline with Tween-80): 120 % of control
- T/C [8]: 103 % of control
- T/C (dose: 25.0 mg/kg/injection, schedule: Q04DX003 (ip), vehicle: saline with Tween-80): 103 % of control
- T/C [9]: 93 % of control

SMILES: COc1ccc(C(=O)/C=C/c2ccccc2Cl)cc1
- T/C [10]: 97 % of control
- T/C [11]: 97 % of control

SMILES: c1ccc(N=C2C3CCN(CC3)C2C(c2ccccc2)c2ccccc2)cc1 (stereo not drawn)
- T/C [1]: 97 % of control
- T/C [2]: 94 % of control
- T/C [3]: 95 % of control

SMILES: c1ccc(COc2ccnc(SCc3ccccc3)n2)cc1
- T/C [4]: 90 % of control
- T/C [15]: 95 % of control
- T/C [5]: 95 % of control
- T/C [16]: 93 % of control
- T/C [6]: 100 % of control

SMILES: CCOC(=O)/C=C(\COC)c1ccccc1
- T/C (dose: 100.0 mg/kg/injection, schedule: Q01DX001 (ip), vehicle: saline): 104 % of control
- T/C (dose: 200.0 mg/kg/injection, schedule: Q01DX001 (ip), vehicle: saline): 104 % of control
- T/C (dose: 400.0 mg/kg/injection, schedule: Q01DX001 (ip), vehicle: saline): 104 % of control

SMILES: CCOC(=O)C1C2=C(C(N)=O)C(=O)C(C(=O)O2)C1c1ccc(O)cc1 (stereo not drawn)
- T/C [13]: 91 % of control
- T/C [14]: 97 % of control
